Data reported in US9364550B2, “Bioactive carbon nanotube composite functionalized with B-sheet polypeptide block copolymer, and preparation method thereof” (INDUSTRY-ACADEMIC COOPERATION FOUNDATION, YONSEI UNIVERSITY, priority 2011, dated 2016).
Ends that are not written are not given here. Ebes = not defined here

Legend:
Format in all cases: physicochemical
[1] = Circular dichroism of linear peptide and peptide/SWCNT hybrid; conditions: CD, molar ellipticity at 215 nm, peptide without SWCNTs
Method: (§1) CD spectra were measured using a Chirascan™ circular dichroism spectrometer equipped with a Peltier temperature controller (Applied Photophysics., Ltd.). The spectra were recorded from 250 nm to 190 nm using a 2 mm path-length cuvette. Scans were repeated five times and averaged. The molar ellipticity was calculated per amino acid residue. Before measurement, 5 μM solutions of peptides with and without SWCNTs were incubated for 12 h in 20 mM or 60 mM NaCl at room temperature.

[2] = Solubilization of SWCNTs by linear β-sheet block copolypeptide with sonication; conditions: 5 μg SWCNTs, 0.3 mL peptide solution, pure water, sonication 15 min at room temperature
Method: First, it was confirmed whether this potential β-sheet forming peptide can bind to and then solubilize SWCNTs in pure water. The arc-produced SWCNTs were suspended in tetrahydrofuran (THF) and equal amounts of the SWCNTs (5 μg) were added into microcentrifuge tubes. After THF evaporation, the block copolypeptide solution (0.3 mL) was added and the mixture was subjected to sonication at room temperature for 15 min.
Next, the influence of ionic strength on the peptide/SWCNT hybrid formation was investigated. The β-sheet contents of the block copolypeptide solution increased with increasing NaCl concentration, and the increase reached a plateau at a salt concentration of around 50-60 mM (see FIG. 5).
In contrast, the granules became smaller when salt was added (50 mM) and the solution was subjected to a vortex (the right image in a) of FIG. 3). Upon soniciation of both mixtures, a significant difference was evident.
An investigation was made as to whether preassembled β-sheet nanoribbons could be disintegrated and used to solubilize CNTs in the presence of SWCNTs (path 4 or path 5 in FIG. 1).

[3] = Circular dichroism of cyclic peptide with and without SWCNTs (α-helix stabilization); conditions: 50 μM peptide without SWCNTs
Method: as §1, with “260” for “250”, “200” for “190”, “50” for “5”, “24” for “12”, “150” for “20”, “KF, and another 50 μM peptide solution without SWCNTs were incubated for 24 h in distilled water.” for “or 60 mM NaCl at room temperature.”
In order to verify the function of SWCNTs as protein mimics supporting the α-helical structures, CD spectra were measured on a 50 μM solution of peptide 2 of Synthesis Example 2 in pure water and a solution of peptide 2 in a 150 mM aqueous salt solution (spectra b (dotted line) and c (alternate long and two short dashes line) of FIG. 10, respectively). Peptide 2 at a concentration of 50 μM was added to a 150 mM aqueous salt solution containing 20 μg of SWCNTs, followed by sonication to form peptide/SWCNT hybrids, which were used for CD spectrum measurement (spectrum a (solid line) of FIG. 10).

Substance	NaCl concentration at which the increase of β-sheet content reached a plateau [1] [mM]	peptide concentration at which most of the SWCNTs were suspended [2]	stabilization of α-helical structure ([3]; 150 mM aqueous salt solution)	stabilization of α-helical structure ([3]; pure water)
GRKKRRQRRRPPQGSGGFKFEFKFEFKFE [block copolypeptide]	50 to 60	around 12.5 μM	–	–
cyclo [-WKWEWKWEWKWEW-Ebes-GTRQARRNRRRRWRR-Ebes-C-] (chain 2 GTRQARRNRRRRWRR-{Ebes-Cys}; reading uncertain; also: cyclic: chain 1-Ebes-chain 2-Ebes-Cys, closed head-to-tail, head-to-tail to a chain's N/C-terminus, printed as cyclo [-WKWEWKWEWKWEW-Ebes-GTRQARRNRRRRWRR-Ebes-C-]) [peptide 2]	–	–	failed to stabilize the α-helical structures	failed to stabilize the α-helical structures
